The source of these data is PMC11256303 (ACS Omega, 2024).

The structures appear in SMILES notation.

The assay addresses α-amylase. As to the kind of experiment: in vitro α-amylase inhibition. As to conditions: read-out: alpha-amylase IC50 ± SEM, standard acarbose. It counts as biochemical.
On to `Clc1ccc(Nc2nc(/N=C\c3ccc(Br)cc3)ns2)cc1Cl` [Compound 7], for which the IC50 was determined as 20.1 ± 0.4 µM. To `Clc1ccc(/C=N\c2nsc(Nc3ccc(Cl)c(Cl)c3)n2)cc1Cl` [Compound 6] belongs 1.9 ± 0.1 µM; to `Cc1ccc(/C=N\c2nsc(Nc3ccc(Cl)c(Cl)c3)n2)cc1` [Compound 4], 15.3 ± 0.3 µM; to `COc1cccc(/C=N\c2nsc(Nc3ccc(Cl)c(Cl)c3)n2)c1` [Compound 5], 17.7 ± 0.3 µM.

Consider `FC(F)(F)c1cccc(Nc2nc(/N=C\c3ccc(Cl)cc3)ns2)c1` [Compound 13], for which the IC50 was found to be 1.5 ± 0.1 µM. In the case of `FC(F)(F)c1cccc(Nc2nc(/N=C/c3ccc(Cl)cc3Cl)ns2)c1` [Compound 15, (E)-3-((2,4-dichlorobenzylidene)amino)-N-(3-(trifluoromethyl)phenyl)-1,2,4-thiadiazol-5-amine], the half-inhibitory concentration (IC50) is 0.8 ± 0.05 µM. To `COc1ccccc1/C=N\c1nsc(Nc2ccc(Cl)c(Cl)c2)n1` [Compound 8] belongs 16.2 ± 0.3 µM.

The term IC50 denotes the concentration needed to halve the response being measured.
